Measurements taken from ChEMBL document CHEMBL1201862, “PubChem BioAssay data set” (2004).
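Compound exposure: 48 hours, 5 concentrations, 96-well plates. Abbreviation: GI50, concentration required for 50% inhibition of growth.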 Activity calls are given as the source filed them. Cut-off read from the data, not from the text of the source: active = GI50 up to about 1.1 µM and inactive = higher.

Assays:
Assay in all cases: DTP human tumour cell line panel, 48 h
[1] = system: A549
[2] = system: CAKI-1
[3] = system: ACHN
[4] = system: U-251
[5] = system: NCI-H23
[6] = system: HL-60
[7] = system: DU-145
[8] = system: MCF7
[9] = system: MDA-MB-435
[10] = system: SK-MEL-28
[11] = system: IGROV-1
[12] = system: SR
[13] = system: NCI-H522
[14] = system: SK-OV-3
[15] = system: T47D
[16] = system: MDA-N
[17] = system: SF-539
[18] = system: PC-3
[19] = system: NCI-H226

Measured: GI50

O=P(O)(O)OC1O[C@H](CO)[C@H](O)[C@H](O)[C@H]1O (stereo not given in full)
inactive: [1] > 100 µM | [2] > 100 µM | [3] > 100 µM | [4] > 100 µM | [5] > 100 µM | [6] > 100 µM | [7] > 100 µM | [8] > 100 µM | [9] > 100 µM | [10] > 100 µM | [11] > 100 µM | [12] > 100 µM | [13] > 100 µM | [14] > 100 µM | [15] > 100 µM | [16] > 100 µM

Cc1ccc(S(=O)(=O)NC(=O)NC(CC(N)=O)C(=O)O)cc1 (stereo not given)
inactive: [1] > 100 µM | [3] > 100 µM | [4] > 100 µM | [17] > 100 µM | [5] > 100 µM | [6] > 100 µM | [7] > 100 µM | [8] > 100 µM | [10] > 100 µM | [11] > 100 µM | [12] > 100 µM | [13] > 100 µM | [14] > 100 µM | [15] > 100 µM | [16] > 100 µM | [18] > 100 µM

COC(=O)CN(CC1O[C@@H]2OC(C)(C)O[C@@H]2C1N=[N+]=[N-])C(=O)OCc1ccccc1 (stereo not given in full)
inactive: [1] > 100 µM | [2] > 100 µM | [3] > 100 µM | [4] > 100 µM | [17] > 100 µM | [6] 69.3 µM | [7] > 100 µM | [8] > 100 µM | [9] > 100 µM | [10] > 100 µM | [11] > 100 µM | [19] > 100 µM | [12] > 100 µM | [13] > 100 µM | [14] > 100 µM | [15] > 100 µM | [18] > 100 µM

Cc1cc(C(=O)CBr)c(CN2C(=O)c3ccccc3C2=O)c(=O)n1C
inactive: [1] 18.8 µM | [2] 20.6 µM | [3] 8.47 µM | [4] 12.7 µM | [17] 16.2 µM | [5] 80.4 µM | [6] 5.09 µM | [7] 13.7 µM | [8] 17.9 µM | [9] 20.3 µM | [10] 20.4 µM | [11] 26.9 µM | [19] 49.5 µM | [12] 1.64 µM | [13] 16.1 µM | [14] > 100 µM | [15] 25.5 µM | [18] 17.2 µM

CC1(C)O[C@@H](CP(c2ccccc2)c2ccccc2)[C@H](CP(c2ccccc2)c2ccccc2)O1
inactive: [1] 2.93 µM | [2] 21 µM | [3] 15.2 µM | [4] 3.66 µM | [17] 7 µM | [5] 1.53 µM | [7] 11.7 µM | [9] 6.03 µM | [10] 12.3 µM | [11] 2.33 µM | [19] 6.52 µM | [13] 2.38 µM | [14] 15.2 µM | [15] 3.76 µM | [16] 3.05 µM

CC(C)=C1C(=O)C[C@]2(C)C[C@H]3O[C@]3(C)CC[C@@H]3O[C@@]3(C)CC[C@@H]12
inactive: [1] > 50 µM | [2] > 50 µM | [3] > 50 µM | [4] > 50 µM | [17] > 50 µM | [5] > 50 µM | [6] > 50 µM | [7] > 50 µM | [8] > 50 µM | [9] > 50 µM | [10] > 50 µM | [11] > 50 µM | [19] > 50 µM | [12] 34.5 µM | [13] 34 µM | [14] > 50 µM | [15] > 50 µM | [18] > 50 µM

CCOC(=O)c1nc2ccccc2nc1Nc1ccc(Cl)c(Cl)c1
inactive: [1] 59.4 µM | [2] 24.5 µM | [3] 76.7 µM | [4] 23.7 µM | [17] 60.5 µM | [5] 33.7 µM | [6] 30.8 µM | [7] > 100 µM | [8] 70 µM | [9] > 100 µM | [10] > 100 µM | [11] 32.5 µM | [12] > 100 µM | [13] 45.7 µM | [14] 27.7 µM | [15] 60.8 µM | [16] 68.1 µM

CCC(=O)NCC1CCCN2CCCCC12 (stereo not given)
inactive: [1] > 100 µM | [2] > 100 µM | [3] > 100 µM | [4] > 100 µM | [17] > 100 µM | [5] > 100 µM | [6] > 100 µM | [7] > 100 µM | [8] > 100 µM | [9] > 100 µM | [10] > 100 µM | [19] > 100 µM | [14] > 100 µM | [15] > 100 µM | [16] > 100 µM | [18] > 100 µM

O=C1/C(=C/c2cccc([N+](=O)[O-])c2)N=C(c2ccccc2)N1c1ccc2c(c1)Sc1cc(N3C(=O)/C(=C/c4cccc([N+](=O)[O-])c4)N=C3c3ccccc3)ccc1N2
inactive: [1] 53 µM | [2] 22.4 µM | [3] 30.9 µM | [4] 24.7 µM | [5] 30.8 µM | [6] 21.6 µM | [7] 36.7 µM | [8] 19.2 µM | [9] 18.7 µM | [10] 47.9 µM | [11] 20.1 µM | [13] 19.1 µM | [14] 16.4 µM | [15] 25.4 µM | [16] 19.3 µM | [18] 22 µM

NNC1=N/C(=C\c2ccco2)C(=O)N1
inactive: [1] 80.9 µM | [2] > 100 µM | [3] 47.5 µM | [4] 91.8 µM | [17] > 100 µM | [5] > 100 µM | [6] > 100 µM | [8] > 100 µM | [9] > 100 µM | [10] > 100 µM | [11] 65.2 µM | [19] > 100 µM | [12] > 100 µM | [13] 50.6 µM | [14] > 100 µM | [15] > 100 µM | [16] > 100 µM | [18] 28.8 µM

Cc1cc(S(=O)(=O)Nc2cc(N)n[nH]2)c(SCc2nc(N)nc(N(C)C)n2)cc1Cl
inactive: [1] > 10 µM | [2] > 10 µM | [3] > 10 µM | [4] > 10 µM | [17] > 10 µM | [5] > 10 µM | [6] > 10 µM | [7] > 10 µM | [8] > 10 µM | [10] > 10 µM | [11] > 10 µM | [19] > 10 µM | [12] > 10 µM | [13] > 10 µM | [14] > 10 µM | [15] > 10 µM | [16] > 10 µM | [18] > 10 µM
